Test results taken from article PMC2662877, “A novel method for screening the glutathione transferase inhibitors” (BMC Biochemistry, 2009).
No end group written: not given here.

What was measured:
GST [1] = target: T1, GST (Schistosoma japonicum, UniProt P08515); experiment: biochemical; format: biochemical; settings: inhibitor 1 μM, DCNB 1 mM, glutathione 1 mM, 25°C; for Specific GST activity: mean ± SD of triplicate, control 4.51 ± 0.02
T1 construct: purchased Sigma-Aldrich

GST [2] = target: T1, GST; experiment: biochemical; format: biochemical; settings: for Specific GST activity: mean ± SD of triplicate, control 2.80 ± 0.01; for order of inhibition efficiencies: with the use of CDNB or DCNB as the substrates, inhibitors 1 μM; for inhibition of GST activity, in words: control peptides, CDNB or DCNB as substrates
Protocol: Figure 3 Effects of F1 and F2 peptides on the activity of GST (μmol/mg/min). The activity was measured by monitoring the GST activity with different peptide concentrations, 1 mM glutathione (GSH) and 1 mM CDNB in 100 mM potassium phosphate buffer (pH6.5) at 25°C.
(§1) The peptide concentration resulting in 50% inhibition (IC50) was determined from a plot of remaining activity versus peptide concentration. Protein concentration was measured according to the Lowry method. Enzyme inhibitory kinetic studies were carried out using various concentrations of glutathione and CDNB and different concentrations of synthetic peptides (0.8, 1.6, 3.2 μM).

GST [3] = settings: first-generation GST inhibitors; no reference given; cited from earlier work
From the text: (§2) The development of resistance to anticancer agents is a primary concern in cancer chemotherapy.

[4] = system: cancer cell lines with increased GST expression; settings: ref [25]; cited from earlier work
From the text: as §2

[5] = binding of synthesized peptides to glutathione Sepharose 4B beads; settings: for binding to glutathione Sepharose 4B beads, in words: control peptides lacking glutathione-interacting residues
Protocol: The binding characteristics of selected peptides to glutathione were determined according to the analysis of binding of synthesized peptides to the glutathione Sepharose 4B beads. The amount of glutathione in the glutathione Sepharose 4B beads was estimated according to the assumption (according to the manufacturere's information) that there are about 200–400 μmol glutathione/g dried beads. An average value of 300 μmol glutathione/g dried beads was used to calculate the amount of glutathione in the glutathione Sepharose 4B beads. In our experiments, appropriate amount of wet glutathione Sepharose 4B beads (equal to 1 mg dry beads) was added to a 1.5 ml Eppendorf tube, and different amounts of synthesized peptides were added into the tube. After binding for 10 min at 37°C, the binding complexes were separated by centrifugation (12,000 × g for 10 min) and concentrations of bound and free peptides were determined by using the Lowry method. Scatchard analysis was used to determine the Kd and Bmax values. Bmax means the maximum binding sites of synthesized peptide on glutathione Speharose 4B beads (μmol peptide/μmol glutathione). Kd is a dissociation constant (pM). Thus, a low Kd value indicates a high affinity.

GST [6] = target: T1, GST; experiment: biochemical; format: biochemical; settings: for effect on Vmax and Km, in words: changing glutathione and peptide concentrations
Protocol: To obtain information on the nature of the inhibition by F1 and F2 peptides, GST activity was measured with variable concentrations of glutathione. Here, we applied a new model in describing enzyme inhibitor (Fig. 4).
The Lineweaver-Burk plot for glutathione as the variable peptide concentration was applied to determine the types of inhibition caused by F1 and F2 peptides. The plot provides a useful graphical method for analysis of the Michaelis-Menten equation. The effects of the peptide on GST-catalyzed reaction kinetics were determined by analysis of apparent Vmax, inhibitor constant Ki and [I]/Ki values.
Figure 5 Lineweaver-Burk plot of the GST activity with varying glutathione (GSH) concentrations. A): The activity was measured with 1 mM CDNB, and different concentrations of GSH, and the F1 peptide. B): The activity was measured with 1 mM CDNB, and different concentrations of GSH, and the F2 peptide.
as §1

[7] = control 100%, % sign missing in F1 cell
[8] = inhibitor 1 μM, CDNB 1 mM, glutathione 1 mM, 25°C, control 100%
[9] = inhibitor 1 μM, CDNB 1 mM, glutathione 1 mM, 25°C
[10] = after elution with elution buffer
[11] = before elution, ratio of peptide concentrations after and before binding

T1 sequence (P08515 whole entry): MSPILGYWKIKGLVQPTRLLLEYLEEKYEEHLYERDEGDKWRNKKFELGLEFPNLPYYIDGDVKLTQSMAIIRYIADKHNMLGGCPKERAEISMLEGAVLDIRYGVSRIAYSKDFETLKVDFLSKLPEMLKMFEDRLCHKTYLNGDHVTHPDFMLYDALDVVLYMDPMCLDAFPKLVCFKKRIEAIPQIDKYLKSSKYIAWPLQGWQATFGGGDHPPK

Nc1c(S(=O)(=O)O)cc(Nc2ccc(Nc3nc(Cl)nc(Nc4ccccc4S(=O)(=O)O)n3)c(S(=O)(=O)O)c2)c2c1C(=O)c1ccccc1C2=O [cibacron blue]
remaining activity at 1 µM (GST [1]; [7]): 21.3%
Specific GST activity (GST [1]): 0.96 ± 0.01 units/mg
remaining activity at 1 µM (GST [2]; [8]): 18.3%
Specific GST activity (GST [2]; [9]): 0.51 ± 0.01 units/mg
order of inhibition efficiencies (GST [2]): tannic acid > cibacron blue > F2 peptide > hematin > F1 peptide > ethacrynic acid

C=C(CC)C(=O)c1ccc(OCC(=O)O)c(Cl)c1Cl [ethacrynic acid]
outcome in clinical trials (GST [3]): unsuccessful in clinical trials
Specific GST activity (GST [1]): 3.66 ± 0.02 units/mg
Specific GST activity (GST [2]; [9]): 1.54 ± 0.01 units/mg

C=CC1=C(C)c2cc3[n-]c(cc4[n-]c(cc5nc(cc1n2)C(C)=C5C=C)c(C)c4CCC(=O)O)c(CCC(=O)O)c3C.O.[Fe+2] [hematin]
GST activity remaining, % of control (GST [1]; [7]): 42.1%
Specific GST activity (GST [1]): 1.90 ± 0.02 units/mg
GST activity remaining, % of control (GST [2]; [8]): 35.2%
Specific GST activity (GST [2]; [9]): 0.99 ± 0.01 units/mg
order of inhibition efficiencies (GST [2]): tannic acid > cibacron blue > F2 peptide > hematin > F1 peptide > ethacrynic acid

C=C[C@H]1C[N@@]2CC[C@H]1C[C@H]2[C@H](O)c1ccnc2ccc(OC)cc12 [quinine]
reversal of resistance to melphalan and doxorubicin [4]: reported to reverse the resistance to melphalan and doxorubicin

GKIKGV [F3 peptide, control peptide F3, lacking Tyr6, Trp7 and Leu12]
Binding efficiency [5, 10]: 1.2%
Binding efficiency [5, 11]: 1.2%
binding to glutathione Sepharose 4B beads, in words [5]: could not bind efficiently
inhibition of GST activity, in words (GST [2]): could not find any significant inhibition of the GST activity

GYWKIKGLV [F1 peptide]
Ki (GST [6]; F1 peptide 0.8 μM, noncompetitive): 4 µM
Ki (GST [6]; F1 peptide 1.6 μM, noncompetitive): 4.57 µM
Ki (GST [6]; F1 peptide 3.2 μM, noncompetitive): 5.82 µM
effect on Vmax and Km, in words (GST [6]): Vmax decreased while Km remained unchanged
IC50 (GST [2]): 0.8 µM

KWNKFELGLEFPL [F4 peptide, control peptide F4, lacking Arg41, Lys44 and Asn53 residues]
Binding efficiency [5, 10]: 2.5%
Binding efficiency [5, 11]: 2.6%
binding to glutathione Sepharose 4B beads, in words [5]: could not bind efficiently
inhibition of GST activity, in words (GST [2]): could not find any significant inhibition of the GST activity

KWRNKKFELGLEFPNL [F2 peptide]
Ki (GST [6]; F2 peptide 0.8 μM, competitive): 1.53 µM
Ki (GST [6]; F2 peptide 1.6 μM, competitive): 1.6 µM
Ki (GST [6]; F2 peptide 3.2 μM, competitive): 2.42 µM
effect on Vmax and Km, in words (GST [6]): Km decreased while Vmax remained unchanged
IC50 (GST [2]): 0.6 µM

tannic acid
GST activity remaining, % of control (GST [1]; [7]): 10.9%
Specific GST activity (GST [1]): 0.49 ± 0.01 units/mg
GST activity remaining, % of control (GST [2]; [8]): 5.6%
Specific GST activity (GST [2]; [9]): 0.16 ± 0.01 units/mg
order of inhibition efficiencies (GST [2]): tannic acid > cibacron blue > F2 peptide > hematin > F1 peptide > ethacrynic acid
